Laboratory results as given in US12433964B2, “Antiviral and antibacterial disinfection aero-solution using edible food dyes” (Purdue Research Foundation, priority 2020, dated 2025).

Experiment: Lifetime (photobleaching) of photosensitizers by fluorescent emission monitoring
Type: physicochemical
Settings: for complete photobleaching after (lifetime): 5 μM aqueous solution, green laser 532 nm 6.3 mW cm^−2 / white LED 2400 lux; for lasting time of singlet oxygen generation: estimated for standard illumination level of 500 lux
Procedure: To test the lifetime of photosensitizers, we monitored the fluorescent emission of Rose Bengal and Erythrosine, respectively. FIG. 10a is a graph of normalized intensity vs wavelength showing absorption and fluorescence for Rose Bengal and Erythrosine. 0.5-mL aqueous solutions of each photosensitizer were put into a cuvette and then the fluorescent spectrum was measured using a fiber bundle-coupled spectrometer (VS140 VIS-NIR; Horiba Jobin Yvon Inc., Edison, NJ, USA). […] Lifetime of Rose Bengal is longer than that of Erythrosine, showing complete photobleaching after 120 min (60 min for Erythrosine). Both are also activated by a white LED with 2400 lux. Considering that the standard illumination level of normal workstation spaces is 500 lux, the lasting time of singlet oxygen generation for Rose Bengal and Erythrosine can be estimated to be about 9.6 and 4.8 hours, respectively.

Compound	complete photobleaching after (lifetime) [min]	lasting time of singlet oxygen generation
O=C([O-])c1c(Cl)c(Cl)c(Cl)c(Cl)c1-c1c2cc(I)c(=O)c(I)c-2oc2c(I)c([O-])c(I)cc12.[Na+].[Na+] [FD&C RED No. 105, Rose Bengal]	120	about 9.6 hours
Erythrosine [FD&C RED No. 3]	60	~4.8 h
